According to patent US5786333A, “Platelet aggregation inhibitors” (COR Therapeutics, Inc., priority 1995, dated 1998):
pIC50: −log10 of the molar value. Where two headings read alike, the source gives them in different places. Where a SMILES comes first, the peptide text is derived from it. Bridges are numbered along the chain shown (N, C = ends).

Assays:
vitronectin receptor = biological target: T1, vitronectin receptor (Homo sapiens, UniProt P05106+P06756); experiment: Vitronectin/vitronectin receptor plate binding assay
T1 construct: Vitronectin receptor was prepared as described by Smith, J. W., J Biol Chem (1988) 263:18726-18731; from tissue; the cited method uses human placenta (own knowledge)
Excerpt: The assay systems of the invention further include characterization of the PAI specificity by binding inhibition assays identical to that above but substituting other adhesive proteins for Fg and other receptors for GP IIb-IIIa. In particular, inhibition of the binding of vitronectin to the vitronectin receptor; fibronectin to the fibronectin receptor; fibronectin to GP IIb-IIIa and fibrinogen and/or vWF to GP IIb-IIIa may be assessed. The adhesive protein and receptors for these assays are available in the art.
Purified platelet GP IIb-IIIa receptor was prepared as described by Fitzgerald, L. A., et al., Anal Biochem (1985) 151:169-177. Vitronectin receptor was prepared as described by Smith, J. W., J Biol Chem (1988) 263:18726-18731. […]
The corresponding ligands (fibrinogen, von Willebrand Factor, or vitronectin) were labeled with ^125 I or conjugated to biotin using commercially available re-agents and standard protocols. […] After incubation, the wells are aspirated to dryness and bound ligand is quantitated.
For ^125 I-labeled ligands, the protein is solubilized with 250 ul SDS. For biotinylated ligands, the bound protein is detected by the addition of antibiotin antibody conjugated to alkaline phosphatase followed by addition of substrate (p-nitrophenyl phosphate), and determination of the optical density of each well at 405 nm. […]

GP IIb-IIIa = biological target: T2, GP IIb-IIIa (Homo sapiens, UniProt P05106+P08514); experiment: Fibrinogen/GP IIb-IIIa plate binding assay; settings: for inhibition of binding of fibrinogen to GP IIb-IIIa (in words): plate assay; for differential inhibition of fibrinogen/GP IIb-IIIa binding as compared to vitronectin/vitronectin receptor binding: plate assays, FIG. 30
T2 construct: Purified platelet GP IIb-IIIa receptor was prepared as described by Fitzgerald, L. A., et al; from tissue; host or cells: platelets
Protocol: In the assay, GP IIb-IIIa, prepared in purified form, for example as described by Fitzgerald, L. A., et al., Anal Biochem (1985) 151:169-177, incorporated herein by reference, is coated onto a solid support such as beads, test tubes, or microtiter plates. The coated support is then contacted with fibrinogen and with the test material and incubated for a sufficient time to permit maximal binding of fibrinogen to the immobilized GP IIb-IIIa. Fibrinogen is typically provided at a concentration of about 5-50 nM and the test material can, if desired, be added at a series of dilutions. Typical incubations are 2-4 hr at 35° C., the time and temperature being interdependent.
After incubation, the solution containing the fibrinogen and test material is removed and the level of binding of fibrinogen measured by quantitating bound fibrinogen to GP IIb-IIIa. Any suitable means of detection may be used, but it is convenient to employ labeled fibrinogen, for example using radioactive, fluorescent or biotinylated labels. Such methods are well known and need not be elaborated here.
In this case, percent inhibition may be calculated using the amount of Fg bound in the control as representing the basis, so that [formula] Other measures of inhibition effectiveness, such as IC50, may also be used.
Purified platelet GP IIb-IIIa receptor was prepared as described by Fitzgerald, L. A., et al., Anal Biochem (1985) 151:169-177. Vitronectin receptor was prepared as described by Smith, J. W., J Biol Chem (1988) 263:18726-18731. After purification, the receptors were stored in 0.1% Triton X-100 at 0.1-1.0 mg/ml.
The receptors were coated to the wells of 96-well flat-bottom ELISA plates (Linbro EIA-Plus microtiter plate, Flow Laboratories) after diluting 1:200 with a solution of […], 150 mM NaCl, 1 mM CaCl2, pH 7.4, to reduce the Triton X-100 concentration to below its critical micellar concentration and adding an aliquot of 100 ul to each well. The wells were all allowed to incubate overnight at 4° C., and then aspirated to dryness. Additional sites were blocked by the addition of bovine serum albumin (BSA) at 35 mg/ml in the above buffer for 2 hr at 30° C. to prevent nonspecific binding. The wells were then washed once with binding buffer ([…] Tris-HCl, 100 mM NaCl, 2 mM CaCl2, 1 mg/ml BSA).
The corresponding ligands (fibrinogen, von Willebrand Factor, or vitronectin) were labeled with ^125 I or conjugated to biotin using commercially available re-agents and standard protocols. The labeled ligands were added to the receptor-coated wells at final concentration of 10 nM (100 ul/well) and incubated for 3 h at 30° C. in the presence or absence of the test samples. After incubation, the wells are aspirated to dryness and bound ligand is quantitated.
For ^125 I-labeled ligands, the protein is solubilized with 250 ul SDS. For biotinylated ligands, the bound protein is detected by the addition of antibiotin antibody conjugated to alkaline phosphatase followed by addition of substrate (p-nitrophenyl phosphate), and determination of the optical density of each well at 405 nm.
Sixty-eight crude, lyophilized snake venoms obtained from either Sigma Chemical Company (St. Louis, Mo.) or Miami Serpentarium Labs (Salt Lake City, Utah) were dissolved at 1 mg/ml in buffer (50 mM Tris, 100 mM NaCl, 0.02% azide, 2 mM CaCi2). One ml aliquots of the solutions were subjected to ultrafiltration through Centrocon-10 (YM membrane) microconcentrators (Amicon, Danvers, Mass.). The filtrates were used as test samples in the receptor/ligand assay of paragraph A using the GP IIb-IIIa/fibrinogen system, and detecting binding using biotinylated fibrinogen.

human platelets = human platelets (Homo sapiens, UniProt P05106+P08514); experiment: ADP-induced human platelet aggregation in platelet rich plasma; format: cell-based
Protocol: In these assays, washed platelets are combined with fibrinogen, Ca^+2 and the material to be tested.
Platelet rich plasma (PRP) was obtained from a healthy human volunteer. Aggregation was induced by the addition of 4 uM ADP to 0.5 ml PRP in an aggregometer (Chrono-log Corp.).
Fractions were concentrated to one-half their original volume using a Speed-Vac concentrator (Savant) followed by lyophilization. Samples were then reconstituted in 1 ml distilled water and aliquots (10-50 ul) assayed for their ability to inhibit human platelet aggregation in platelet-rich plasma induced by 20 uM ADP using a whole blood aggregometer (Chrono-Log Corp., Havertown, Pa.).

platelet receptors = platelet receptors (Homo sapiens, UniProt P05106+P08514); settings: read-out: IC50 (affinity of interaction with platelet receptors); background art; cited from earlier work
M21 melanoma cells = experiment: M21 melanoma cell attachment to vitronectin; format: cell-based; settings: for inhibition of M21 melanoma cell attachment to vitronectin (in words): 35S-methionine labelled cells, vitronectin-coated plates
Protocol: M21 melanoma cells, which express high levels of the vitronectin receptor, were metabolically labelled with ^35 S-methionine, and then added to 24--well tissue culture plates coated with vitronectin. An incubation period of 1 hr at 37° C. was allowed for cell attachment, and this was followed by a wash to remove non-adherent cells. After washing, the adherent cells were solubilized, and the supernatants placed in a liquid scintillation counter. The fraction of cells remaining adherent was calculated by dividing the cpm in the solubilized supernatants by the cpm in the total number of cells added to each well. The effects of purifed snake venom peptides and synthetic cyclic peptides on cell adhesion was determined by including them with the M21 cells during the incubation period.
M21 melanoma cells were labelled with ^35 S-methionine, and then added to vitronectin-coated plates in the presence of the indicated concentrations of purified snake venom peptides. Cell attachment was measured by solubilizing the cells remaining after an incubation and wash, as described in Section C, on page 40.

open chest dog = experiment: Folts model of thrombosis in dog coronary artery (cyclic flow reductions); format: in vivo
Protocol: A. Initiation of cyclic flow reductions (CFRs) in open chest dog. An occluder placed on the left anterior descending (LAD) coronary artery of a 20 kg dog, as previously described was performed.

[1] = ADP-induced human platelet aggregation, table of Example 17, read-out: Appr. IC50

T1 sequence (P06756 31-889 limits assumed): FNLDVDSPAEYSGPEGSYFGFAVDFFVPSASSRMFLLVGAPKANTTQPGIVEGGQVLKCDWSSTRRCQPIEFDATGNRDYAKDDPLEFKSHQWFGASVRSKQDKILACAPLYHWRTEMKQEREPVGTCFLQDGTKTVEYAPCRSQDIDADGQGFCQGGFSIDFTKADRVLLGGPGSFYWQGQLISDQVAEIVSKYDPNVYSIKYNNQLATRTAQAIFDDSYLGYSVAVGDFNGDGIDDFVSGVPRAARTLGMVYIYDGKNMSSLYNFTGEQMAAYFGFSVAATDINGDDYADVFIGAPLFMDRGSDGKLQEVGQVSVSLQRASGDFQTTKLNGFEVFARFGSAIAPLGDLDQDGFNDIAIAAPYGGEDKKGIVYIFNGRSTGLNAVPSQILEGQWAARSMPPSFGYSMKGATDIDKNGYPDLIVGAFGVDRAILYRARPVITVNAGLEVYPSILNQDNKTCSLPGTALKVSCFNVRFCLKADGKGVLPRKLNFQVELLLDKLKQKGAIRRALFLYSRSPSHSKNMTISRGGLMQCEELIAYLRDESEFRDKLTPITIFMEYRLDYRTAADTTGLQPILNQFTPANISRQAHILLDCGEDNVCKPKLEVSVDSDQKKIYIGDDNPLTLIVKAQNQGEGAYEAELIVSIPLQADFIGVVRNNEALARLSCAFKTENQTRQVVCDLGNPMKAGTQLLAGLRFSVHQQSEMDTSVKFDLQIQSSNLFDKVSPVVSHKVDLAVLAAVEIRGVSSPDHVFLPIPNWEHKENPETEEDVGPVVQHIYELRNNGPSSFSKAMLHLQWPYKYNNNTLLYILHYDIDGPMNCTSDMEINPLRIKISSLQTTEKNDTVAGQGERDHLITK
T1 sequence (P06756 891-1048 partner limits assumed): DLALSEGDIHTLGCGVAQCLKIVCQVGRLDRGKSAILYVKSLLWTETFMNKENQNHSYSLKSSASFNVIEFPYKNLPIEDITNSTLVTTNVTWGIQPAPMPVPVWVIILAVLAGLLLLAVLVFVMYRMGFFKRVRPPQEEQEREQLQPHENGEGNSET
T1 sequence (P05106 27-788): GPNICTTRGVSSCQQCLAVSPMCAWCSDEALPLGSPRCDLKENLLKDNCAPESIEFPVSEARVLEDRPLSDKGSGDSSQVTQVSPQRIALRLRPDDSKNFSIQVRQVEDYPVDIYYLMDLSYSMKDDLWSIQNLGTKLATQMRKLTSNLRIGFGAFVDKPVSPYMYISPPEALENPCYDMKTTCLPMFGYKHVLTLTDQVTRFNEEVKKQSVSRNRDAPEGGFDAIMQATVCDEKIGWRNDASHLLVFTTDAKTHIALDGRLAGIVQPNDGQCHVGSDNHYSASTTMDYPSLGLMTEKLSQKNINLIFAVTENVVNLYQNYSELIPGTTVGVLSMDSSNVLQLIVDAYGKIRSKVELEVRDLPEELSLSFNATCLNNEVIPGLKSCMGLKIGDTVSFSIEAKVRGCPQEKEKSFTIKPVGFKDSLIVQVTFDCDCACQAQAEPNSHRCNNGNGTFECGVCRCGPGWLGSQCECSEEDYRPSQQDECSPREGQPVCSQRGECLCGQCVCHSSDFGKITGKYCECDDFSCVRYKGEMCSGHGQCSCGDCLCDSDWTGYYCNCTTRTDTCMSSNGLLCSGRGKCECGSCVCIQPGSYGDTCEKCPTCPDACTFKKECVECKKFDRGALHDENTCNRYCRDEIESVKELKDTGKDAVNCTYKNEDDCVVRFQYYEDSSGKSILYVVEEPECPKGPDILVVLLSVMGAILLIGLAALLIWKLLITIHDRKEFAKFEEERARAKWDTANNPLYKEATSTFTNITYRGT

## EEPCATGPCCRRCKFKRAGKVCRVAKGDWNNDYCTGKSCDCPRNPWNG (EEPCATGPCCRRCKFKRAGKVCRVAKGDWNNDYCTGKSCDCPRNPWNG) [Analog #2]
Vitronectin receptor
  inhibition of binding of vitronectin to vitronectin receptor (in words): inability to inhibit
GP IIb-IIIa
  inhibition of binding of fibrinogen to GP IIb-IIIa (in words): ability

## C[C@H](NC(=O)[C@@H]1CSSC[C@H](NC(=O)CN)C(=O)NCC(=O)N[C@@H](CCCCN)C(=O)NCC(=O)N[C@@H](CC(=O)O)C(=O)N[C@@H](Cc2c[nH]c3ccccc23)C(=O)N1)C(N)=O [#6] (H-GCGKGDWCA-NH2; disulfide 2-8)
Human platelets; [1]
  pIC50: < 3.70

## HHLGGAQKAGDV
Platelet receptors
  pIC50: 4.00 to 5.00

## CC(=O)N[C@H]1CSSC[C@@H](C(N)=O)NC(=O)[C@H](CC(=O)O)NC(=O)CNC(=O)[C@H](CCCCN)NC1=O [Analog 8] (Ac-CKGDC-NH2; disulfide 1-5)
GP IIb-IIIa
  differential inhibition of fibrinogen/GP IIb-IIIa binding as compared to vitronectin/vitronectin receptor binding: differentially capable

## C[C@H](NC(=O)[C@@H]1CSSC[C@H](NC(=O)CN)C(=O)NCC(=O)N[C@@H](CCCCN)C(=O)NCC(=O)N[C@@H](CC(=O)O)C(=O)N[C@@H](Cc2c[nH]c3ccccc23)C(=O)N1)C(N)=O [Analog 6] (H-GCGKGDWCA-NH2; disulfide 2-8)
GP IIb-IIIa
  differential inhibition of fibrinogen/GP IIb-IIIa binding as compared to vitronectin/vitronectin receptor binding: differentially capable

## C[C@H](NC(=O)[C@@H]1CSSC[C@H](NC(=O)CN)C(=O)NCC(=O)N[C@@H](CCCCN)C(=O)NCC(=O)N[C@@H](CC(=O)O)C(=O)N[C@@H](Cc2c[nH]c3ccccc23)C(=O)N2CCC[C@H]2C(=O)N1)C(N)=O [Analog #3, G-C-G-K-G-D-W-P-C-A-NH2]
M21 melanoma cells
  inhibition of M21 melanoma cell attachment to vitronectin (in words): lack of ability
M21 melanoma cells; FIG. 32
  concentration up to which ineffective on M21 cell attachment to vitronectin: > 60 µM

## N=C(N)NCCC[C@H](N)C(=O)NCC(=O)N[C@@H](CC(=O)O)C(=O)N[C@@H](Cc1c[nH]c2ccccc12)C(N)=O [RGDW-NH2, reference compound] (H-RGDW-NH2)
GP IIb-IIIa
  inhibition of binding of fibrinogen to GP IIb-IIIa (in words): very similar in activity to cyclic GCGRGDWPCA-NH2

## NCCCC[C@@H]1NC(=O)[C@@H](N)CSSC[C@@H](C(N)=O)NC(=O)[C@@H]2CCCN2C(=O)[C@H](Cc2c[nH]c3ccccc23)NC(=O)[C@H](CCC(=O)O)NC(=O)CNC1=O [#35] (H-CKGEWPC-NH2; disulfide 1-7)
Human platelets; [1]
  pIC50: < 3.52

## C[C@H](NC(=O)[C@@H]1CSSC[C@H](NC(=O)CN)C(=O)NCC(=O)N[C@@H](CCCNC(=N)N)C(=O)NCC(=O)N[C@@H](CC(=O)O)C(=O)N[C@@H](Cc2c[nH]c3ccccc23)C(=O)N2CCC[C@H]2C(=O)N1)C(N)=O [reference compound] (H-GCGRGDWPCA-NH2; disulfide 2-9)
M21 melanoma cells
  inhibition of M21 melanoma cell attachment to vitronectin (in words): potent inhibitors of cell attachment
M21 melanoma cells; listed as cyclic RGD compound
  inhibition of M21 melanoma cell attachment to vitronectin (in words): ability

## NCCCC[C@@H]1NC(=O)CNC(=O)[C@@H](N)CSSC[C@@H](C(N)=O)NC(=O)[C@@H]2CCCN2C(=O)[C@H](Cc2c[nH]c3ccccc23)NC(=O)[C@H](CC(=O)O)NC(=O)CNC1=O [#5] (H-CGKGDWPC-NH2; disulfide 1-8)
Human platelets
  platelet aggregation inhibition (in words): excellent platelet aggregation inhibition activities
GP IIb-IIIa
  differential inhibition of fibrinogen/GP IIb-IIIa binding as compared to vitronectin/vitronectin receptor binding: quite specific

## C[C@H](NC(=O)[C@@H]1CSSC[C@H](NC(=O)CN)C(=O)N[C@@H](CCCCN)C(=O)NCC(=O)N[C@@H](CC(=O)O)C(=O)N[C@@H](Cc2c[nH]c3ccccc23)C(=O)N1)C(N)=O [#7] (H-GCKGDWCA-NH2; disulfide 2-7)
Human platelets
  platelet aggregation inhibition (in words): excellent platelet aggregation inhibition activities
Human platelets; text of Example 17, read-out: IC50 for ability to inhibit ADP-induced human platelet aggregation
  pIC50: 4.00
GP IIb-IIIa
  differential inhibition of fibrinogen/GP IIb-IIIa binding as compared to vitronectin/vitronectin receptor binding: quite specific

## C[C@H](NC(=O)[C@@H]1CSSC[C@H](NC(=O)CN)C(=O)NCC(=O)N[C@@H](CCCCN)C(=O)NCC(=O)N[C@@H](CC(=O)O)C(=O)N[C@@H](Cc2c[nH]c3ccccc23)C(=O)N2CCC[C@H]2C(=O)N1)C(N)=O [#3]
Open chest dog; 10 mg infused into a peripheral vein, 20 kg open chest dog, FIG. 36
  effect on cyclic flow reductions (CFRs) in LAD coronary artery: partial ablation of the CFRs
Open chest dog; second infusion of 40 mg into a peripheral vein, open chest dog, FIG. 37
  effect on cyclic flow reductions (CFRs) in LAD coronary artery: complete ablation of the CFRs

## ECADGLCCDQCRFLKKGTVCRVAKGDWNDDTCTGQSC- D-C-P-R-N-G-L-Y-G (ECADGLCCDQCRFLKKGTVCRVAKGDWNDDTCTGQSCDCPRNGLYG) [Analog #1]
Human platelets
  platelet aggregation inhibition (in words): potent inhibitors of platelet aggregation
M21 melanoma cells
  inhibition of M21 melanoma cell attachment to vitronectin (in words): neither barbourin nor Peptide 1 (truncated barbourin) had a significant effect

## C[C@H](NC(=O)[C@@H]1CSSC[C@H](NC(=O)CN)C(=O)N[C@@H](CCCCN)C(=O)NCC(=O)N[C@@H](CC(=O)O)C(=O)N[C@@H](Cc2c[nH]c3ccccc23)C(=O)N2CCC[C@H]2C(=O)N1)C(N)=O [#4] (H-GCKGDWPCA-NH2; disulfide 2-8)
GP IIb-IIIa
  differential inhibition of fibrinogen/GP IIb-IIIa binding as compared to vitronectin/vitronectin receptor binding: highest differential
